In patent US20250382322A1, “DIAGNOSTICS FOR DETECTING ECTO-5'-NUCLEOTIDASE (CD73)” (EBERHARD KARLS UNIVERSITÄT TÜBINGEN, priority 2022, published 2025):

Molecular target: T1, recombinant soluble human CD73 (Homo sapiens, UniProt P21589, T376A)
T1 construct: mature human CD73 (residues 27-549) fused to 6×His-tag at the C-terminus; 6xHis (C); made in house; host or cells: Spodoptera frugiperda Sf9 insect cells (baculovirus, pAcGP67B vector)
T1 sequence (P21589 27-549 T376A): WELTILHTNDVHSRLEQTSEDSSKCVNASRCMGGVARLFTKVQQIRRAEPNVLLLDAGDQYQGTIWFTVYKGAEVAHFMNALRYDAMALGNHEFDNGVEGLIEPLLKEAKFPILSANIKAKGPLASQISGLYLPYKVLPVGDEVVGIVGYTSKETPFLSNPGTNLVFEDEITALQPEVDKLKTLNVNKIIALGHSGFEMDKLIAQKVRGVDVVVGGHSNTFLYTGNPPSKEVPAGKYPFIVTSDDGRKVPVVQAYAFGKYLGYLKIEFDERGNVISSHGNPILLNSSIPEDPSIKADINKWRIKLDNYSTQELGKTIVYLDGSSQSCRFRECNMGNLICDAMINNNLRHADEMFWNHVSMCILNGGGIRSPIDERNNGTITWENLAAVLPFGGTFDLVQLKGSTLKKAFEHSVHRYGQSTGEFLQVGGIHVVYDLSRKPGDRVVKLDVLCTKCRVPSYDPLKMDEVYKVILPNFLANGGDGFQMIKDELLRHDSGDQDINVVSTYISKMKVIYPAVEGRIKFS
Test: CD73 enzyme inhibition assay with [2,8-3H]AMP, soluble human CD73
Type: biochemical
Conditions: [2,8-3H]AMP (5 μM) as substrate; Ki from IC50 by Cheng-Prusoff; read-out: Human soluble CD73 Ki ± SEM
Method: Compound 2b, its precursor 1, and 20 were investigated for their CD73-inhibitory potency using tritium-labeled AMP as a substrate.^20 After incubation with CD73, non-hydrolyzed substrate and inorganic phosphate were precipitated using a solution of lanthanum chloride, and the precipitate was separated from the solution containing the reaction product [2,8-^3H]adenosine by filtration through GF/B glass fiber filters (WhatmanTM GE Healthcare, Chicago, IL, USA) using a cell harvester (M-48, Brandel, Gaitherburg, MD, USA). The filtrates (ca. 1.8 mL each) were transferred to scintillation vials, scintillation cocktail ULTIMA Gold XR (PerkinElmer, Waltham, MA, USA) was added (5 mL), and the radioactivity esd quantified by scintillation counting. CD73 preparations were (1) recombinant soluble human CD73,^13 (2) recombinant soluble rat CD73,^21 both expressed in Spodoptera frugiperda 9 (Sf) cells, (3) membrane preparations of MDA-MB-231 cells,^16 a human triple-negative breast cancer cell line with high expression of CD73,^18 and (4) membrane preparations of the 4T1.2 cell line, a mouse CD73-expressing breast cancer cell line.^22 The potency of the compounds was determined by measurements of full concentration-inhibition curves. K values were calcuated from the obtained IC50 values employing the Cheng-Prusoff equation.^23
Human soluble CD73 was expressed in Spodoptera frugiperda (Sf9) insect cells and purified as previously described.^16 The cDNA encoding for the mature human CD73 (residues 27-549) fused to 6×His-tag at the C-terminus (Genbank accession no. NM_002526) corresponding to the natural variant T376A (P21589/VAR_022091, UniProtKB/Swiss-Prot) was ligated into the pAcGP67B vector. For transfection, 1 μl of the recombinant vector (1000 ng/μl) mixed with 2.5 μl of baculovirus genomic DNA ProEasy™ (AB vector, CA, USA) was used to transfect Sf9 cells grown in Insect-XPRESS™ medium (#BE12-7300, Lonza, Switzerland) supplemented with 10 mg/l gentamicin. […]

| Ki [nM] | SMILES |
| --- | --- |
| 5.96 ± 0.85 | O=C(NCCCCCCNC(=O)c1ccc2c(c1)C1(OC2=O)c2ccc(O)cc2Oc2cc(O)ccc21)c1ccc(CNc2nc(Cl)nc3c2ncn3[C@@H]2O[C@H](COP(=O)(O)CP(=O)(O)O)[C@@H](O)[C@H]2O)cc1 [Compound 20, (((((2R,3S,4R,5R)-5-(2-chloro-6-((4-((6-(3′,6′-dihydroxy-3-oxo-3H-spiro[isobenzofuran-1,9′-xanthene]-6-carboxamido)-hexyl)carbamoyl)benzyl)amino)-9H-purin-9-yl)-3,4-dihydroxytetrahydrofuran-2-yl)methoxy)(hydroxy)phosphoryl)methyl)phosphonic acid] |
| 1.02 ± 0.11 | CCCN(Cc1ccc(-c2cn(CCF)nn2)cc1)c1nc(Cl)nc2c1ncn2[C@@H]1O[C@H](COP(=O)(O)CP(=O)(O)O)C(O)C1O (some centres unmarked) [Compound 2] |
